{"source": "patent US20090060851A1", "about": "“USE OF IDEBENONE FOR THE PREPARATION OF A TOPICALLY-APPLIED DEPIGMENTATION COMPOSITION AND CORRESPONDING COMPOSITION” (priority 2005, published 2009)", "tested_on": "SK-MEL-28", "assay": "Dopaquinone content determination (OD475) in SK-MEL cells", "type": "cell-based, human", "experimental": "In vitro determinations were performed following the method devised by Dooley et al. (Skin Pharmacol. 1994; 7:188-200) in order to evaluate the capacity of idebenone to inhibit melanogenesis, according to the process described below:\nCells: The study was carried out using a cell line derived from human melanoma, provided by ABAC (Asociación Banco Argentino de Células—Cell Bank of Argentina), with melanin synthesis capability (SK-MEL-28, ATCC origin). The cells were grown in plastic culture bottles or in 24-well plastic dishes in a modified Eagle medium (DMEM) supplemented with 10% fetal bovine serum (FBS) and were maintained at 37° C. in a 5% CO2 atmosphere.\nStudy of in vitro compounds: SK-MEL cells detached with trypsin were seeded on plastic 24-well dishes (density of 1×10^5 cells per well) and incubated for 24 hours in modified Eagle medium (DMEM) supplemented with 10% fetal bovine serum (FBS) prior to treating with the compound to be evaluated. After 24 hours have lapsed, the medium was replaced with 990 μl of fresh medium. 10 μl of sterile vehicle (50% propylene glycol, 30% ethanol and 20% distilled water) containing different concentrations of the compounds to be evaluated were added to this fresh medium.\nDecimal dilutions of each compound in the sterile vehicle were prepared in order to obtain final concentrations of the compound to be studied ranging between 1.000 and 0.01 μg/ml. […]\n[…] […] All the concentrations of the compounds were studied in triplicate, comparing the mean of the 3 wells treated with the compounds with those treated with the vehicle alone.\nMelanin content determination: The SK-MEL cell melanin content was determined after stirring the culture medium and washing the cells with PBS. The cells were then lysated by means of adding 1 ml of 1N NaOH to each well and repeated manual pipetting. The raw cell extract was analyzed using a spectrophotometer at 400 and 475 nm to determine the melanin and dopaquinone content, respectively. The results were expressed as a percentage of the cell cultures treated with the vehicle.", "key": {"[1]": {"settings": "Example 9 (similar to Example 6), dilution −2"}, "[2]": {"settings": "Example 9 (similar to Example 6), dilution −3"}, "[3]": {"settings": "Example 9 (similar to Example 6), dilution −4"}, "[4]": {"settings": "Example 9 (similar to Example 6), dilution −5"}, "[5]": {"settings": "Example 9 (similar to Example 6), dilution −6"}, "[6]": {"settings": "Example 9 (similar to Example 6), dilution −7"}, "[7]": {"settings": "Example 9 (similar to Example 6), dilution −8"}, "[8]": {"settings": "dilution −1, treated daily 3 days, assayed day 5"}, "[9]": {"settings": "dilution −2, treated 1 day, evaluated third day"}, "[10]": {"settings": "dilution −2, treated daily 3 days, assayed day 5"}, "[11]": {"settings": "dilution −3, treated 1 day, evaluated third day"}, "[12]": {"settings": "dilution −3, treated daily 3 days, assayed day 5"}, "[13]": {"settings": "dilution −4, treated 1 day, evaluated third day"}, "[14]": {"settings": "dilution −4, treated 2 days, evaluated fourth day"}, "[15]": {"settings": "dilution −4, treated daily 3 days, assayed day 5"}, "[16]": {"settings": "dilution −4, treated for 5 days (heading: 3 days), evaluated fifth day"}, "[17]": {"settings": "dilution −5, treated 1 day, evaluated third day"}, "[18]": {"settings": "dilution −5, treated 2 days, evaluated fourth day"}, "[19]": {"settings": "dilution −5, treated daily 3 days, assayed day 5"}, "[20]": {"settings": "dilution −5, treated for 5 days (heading: 3 days), evaluated fifth day"}, "[21]": {"settings": "dilution −6, treated 1 day, evaluated third day"}, "[22]": {"settings": "dilution −6, treated 2 days, evaluated fourth day"}, "[23]": {"settings": "dilution −6, treated for 5 days (heading: 3 days), evaluated fifth day"}}, "data": [{"smiles": "COC1=C(OC)C(=O)C(CCCCCCCCCCO)=C(C)C1=O", "note": "[idebenone, 6-(10-hydroxydecyl)-2,3-dimethoxy-5-methyl-1,4-benzoquinone]", "values": [{"measurement": "OD475 (dopaquinone)", "setting": "[1]", "value": 0.0024}, {"measurement": "OD475 Percentage (dopaquinone)", "setting": "[1]", "value": 14.45, "unit": "%"}, {"measurement": "OD475 (dopaquinone)", "setting": "[2]", "value": 0.0038}, {"measurement": "OD475 Percentage (dopaquinone)", "setting": "[2]", "value": 22.89, "unit": "%"}, {"measurement": "OD475 (dopaquinone)", "setting": "[3]", "value": 0.0133}, {"measurement": "OD475 Percentage (dopaquinone)", "setting": "[3]", "value": 80.12, "unit": "%"}, {"measurement": "OD475 (dopaquinone)", "setting": "[4]", "value": 0.0139}, {"measurement": "OD475 Percentage (dopaquinone)", "setting": "[4]", "value": 83.73, "unit": "%"}, {"measurement": "OD475 (dopaquinone)", "setting": "[5]", "value": 0.0116}, {"measurement": "OD475 Percentage (dopaquinone)", "setting": "[5]", "value": 69.87, "unit": "%"}, {"measurement": "OD475 (dopaquinone)", "setting": "[6]", "value": 0.0139}, {"measurement": "OD475 Percentage (dopaquinone)", "setting": "[6]", "value": 83.73, "unit": "%"}, {"measurement": "OD475 (dopaquinone)", "setting": "[7]", "value": 0.0133}, {"measurement": "OD475 Percentage (dopaquinone)", "setting": "[7]", "value": 80.12, "unit": "%"}, {"measurement": "OD475 (dopaquinone)", "setting": "[8]", "value": 0.0011}, {"measurement": "OD475 expressed as percentage of control (dopaquinone)", "setting": "[8]", "value": 9, "unit": "%"}, {"measurement": "OD475 (dopaquinone)", "setting": "[9]", "value": 0.0030}, {"measurement": "OD475 Percentage (dopaquinone)", "setting": "[9]", "value": 18.75, "unit": "%"}, {"measurement": "OD475 (dopaquinone)", "setting": "[10]", "value": 0.0016}, {"measurement": "OD475 expressed as percentage of control (dopaquinone)", "setting": "[10]", "value": 14, "unit": "%"}, {"measurement": "OD475 (dopaquinone)", "setting": "[11]", "value": 0.0050}, {"measurement": "OD475 Percentage (dopaquinone)", "setting": "[11]", "value": 31.25, "unit": "%"}, {"measurement": "OD475 (dopaquinone)", "setting": "[12]", "value": 0.0043}, {"measurement": "OD475 expressed as percentage of control (dopaquinone)", "setting": "[12]", "value": 37, "unit": "%"}, {"measurement": "OD475 (dopaquinone)", "setting": "[13]", "value": 0.0123}, {"measurement": "OD475 Percentage (dopaquinone)", "setting": "[13]", "value": 76.87, "unit": "%"}, {"measurement": "OD475 (dopaquinone)", "setting": "[14]", "value": 0.0400}, {"measurement": "OD475 Percentage (dopaquinone)", "setting": "[14]", "value": 103.62, "unit": "%"}, {"measurement": "OD475 (dopaquinone)", "setting": "[15]", "value": 0.0053}, {"measurement": "OD475 expressed as percentage of control (dopaquinone)", "setting": "[15]", "value": 46, "unit": "%"}, {"measurement": "OD475 (dopaquinone)", "setting": "[16]", "value": 0.0513}, {"measurement": "OD475 Percentage (dopaquinone)", "setting": "[16]", "value": 80.66, "unit": "%"}, {"measurement": "OD475 (dopaquinone)", "setting": "[17]", "value": 0.0196}, {"measurement": "OD475 Percentage (dopaquinone)", "setting": "[17]", "value": 122.5, "unit": "%"}, {"measurement": "OD475 (dopaquinone)", "setting": "[18]", "value": 0.0406}, {"measurement": "OD475 Percentage (dopaquinone)", "setting": "[18]", "value": 105.18, "unit": "%"}, {"measurement": "OD475 (dopaquinone)", "setting": "[19]", "value": 0.0040}, {"measurement": "OD475 expressed as percentage of control (dopaquinone)", "setting": "[19]", "value": 35, "unit": "%"}, {"measurement": "OD475 (dopaquinone)", "setting": "[20]", "value": 0.0612}, {"measurement": "OD475 Percentage (dopaquinone)", "setting": "[20]", "value": 96.22, "unit": "%"}, {"measurement": "OD475 (dopaquinone)", "setting": "[21]", "value": 0.0200}, {"measurement": "OD475 Percentage (dopaquinone)", "setting": "[21]", "value": 125.0, "unit": "%"}, {"measurement": "OD475 (dopaquinone)", "setting": "[22]", "value": 0.0273}, {"measurement": "OD475 Percentage (dopaquinone)", "setting": "[22]", "value": 70.72, "unit": "%"}, {"measurement": "OD475 (dopaquinone)", "setting": "[23]", "value": 0.0643}, {"measurement": "OD475 Percentage (dopaquinone)", "setting": "[23]", "value": 101.10, "unit": "%"}]}]}
